Measured values published in patent US20250186456A1, “PYRIMIDINE-FUSED CYCLIC COMPOUND AND PREPARATION METHOD AND USE THEREOF” (Genfleet Therapeutics (Shanghai) Inc., priority 2021, published 2025).
Like-named read-outs stand apart in the source and are kept apart here.

Assays:
Assay type in all cases: cell-based, human
[1] = tested on: p-ERK in AGS cells (KRAS G12D mutation); experiment: Cell p-ERK assay (HTRF, Advance ERK phospho-T202/Y204 kit); details: AGS cells, 3 hours incubation with compound, HTRF, read-out: AGS p-ERK IC50
Outline: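 Phospho-ERK (T202/Y204) measured by HTRF in lysates of human gastric AGS cells carrying KRAS G12D, after 3 h compound exposure at 0.1% DMSO over a 3.16-fold series. Percent inhibition relative to DMSO control and lysis-only blank; four-parameter curve fitting gave IC50.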

AGS cells (KRAS G12D) = experiment: Cell proliferation inhibition assay, 3D, CellTiter-Glo 3D, AGS; details: AGS 3D sphere model, 5 days incubation
Outline: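 Spheroids (800 AsPC-1 or 400 AGS cells/well; RPMI-1640 or F-12K with 10% FBS) formed overnight, then were dosed on day 2 with a 3.16-fold series at 0.1% DMSO. After 5 days, viability was read by CellTiter-Glo 3D luminescence, and IC50 came from four-parameter fits of inhibition versus DMSO control and medium blank.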

[2] = tested on: AsPC-1 cells (KRAS G12D mutation); experiment: Cell proliferation inhibition assay, 3D, CellTiter-Glo 3D, AsPC-1; details: AsPC-1 3D sphere model, 5 days incubation
Excerpt: AsPC-1 was purchased from ATCC; catalog No: CRL-1682; AGS was purchased from ATCC; catalog No: CRL-1739; RPMI1640 was purchased from Gibco; catalog No: 11875-093 2235123; F12K was purchased from Gibco; catalog No: 21127-022; FBS was purchased from Gibco; catalog No: 10099-141C; trypsin (containing EDTA) was purchased from Gibco; catalog No: 25200-072; CellTiter Glo-3D was purchased from Progema; catalog No: G9683; 384-well sphere plates were purchased from Corning; catalog No: 3830; white opaque 384-well plates were purchased from Corning; catalog No: 3570; cell counters were purchased from CHEMOMETEC; model: NC-200; microplate reader was purchased from PerkinElmer; model: Envison;
AsPC-1 is an endogenous human pancreatic cancer cell containing KRAS^G12D mutation, cultured in RPMI-1640 medium containing 10% FBS; AGS is a human gastric cancer cell line containing KRAS^G12D, cultured in F-12K medium containing 10% FBS. Cells in the logarithmic growth phase were taken, digested with trypsin (containing EDTA), collected, and counted. 800 AsPC-1 cells/well or 400 AGS cells/well, respectively, were seeded in a 384-well sphere plate and cultured overnight at 5% CO2 to establish a 3D cell model. 1000X stock solutions of compounds at a 3.16-fold concentration gradient of were prepared using DMSO, diluted 100-fold into a 10X compound stock solution using the medium described above. The 10X compound stock solution was added to each cell on 2nd day after cell seeding at a final concentration of 1X and a DMSO content of 0.1%. DMSO was used as a control in the experiment, and the medium was used as blank. After the addition of the compounds, the cells were incubated for 5 days. 30 μl of CellTiter-Glo work solution was added to each well, mixed well, and incubated for 30 minutes. After standing at room temperature for 30 minutes, 40 μl of the mixed solution was transferred to an opaque 384-well plate with a white clear bottom. Luminescence chemiluminescence value was read by a microplate reader, and the cell proliferation inhibition rate (IR (%)=(RLU control-RLU compound)/(RLU control-RLU blank)×100%) was calculated. The gradiently diluted concentration of the compounds and corresponding cell proliferation inhibition rate were fitted using XLFit four-parameters method, and the IC50 value was calculated. […] The results of some exemplary compounds are shown in Table 2 (“−” represents untested).

Row | IC50 [1] [nM] | IC50 (AGS cells (KRAS G12D)) [nM] | IC50 [2] [nM] | SMILES | IC50 ([1]; Homo sapiens) [nM] | IC50 (AGS cells (KRAS G12D); Homo sapiens, 120 h) [nM] | IC50 ([2]; Homo sapiens, ASPC1, 120 h) [nM]
1 |  |  |  | C#Cc1cccc2cccc(-c3nc4c5c(nc(OCC67CCCN6CC(=C)C7)nc5c3F)N3C[C@H]5CC[C@H](N5)[C@H]3[C@H](CC)O4)c12 (stereo partly drawn) [Example Z595, (5S,5aS,6S,9R)-5-ethyl-2-(8-ethynylnaphthalen-1-yl)-1-fluoro-12-((2-methylenetetrahydro-1H-pyrrolizin-7a (5H)-yl)methoxy)-5a,6,7,8,9,10-hexahydro-5H-4-oxa-3,10a,11,13,14-pentaaza-6,9-methanonaphtho[1,8-ab]heptalene] | 119 | 99 | 157
2 | 48.5 | 47.9 | 98.7 | C#Cc1c(F)ccc2cccc(-c3nc4c5c(nc(OCC67CCC8(CC8)N6CC(=C)C7)nc5c3F)N3C[C@H]5CC[C@H](N5)[C@H]3[C@H](C)O4)c12 (stereo partly drawn) [Example Z597] |  |  | 
3 |  |  |  | C#Cc1c(F)ccc2cc(O)cc(-c3nc4c5c(nc(OCC67CC(=C)CN6CC(=C)C7)nc5c3F)N3C[C@H]5CC[C@H](N5)[C@H]3CCO4)c12 [Example Z598] | 0.68 | 1.23 | 5.55
4 | 27.6 | 10.8 | 22.3 | C#Cc1c(F)ccc2cccc(-c3nc4c5c(nc(OCC67CC(=C)CN6CC6(CC6)C7)nc5c3F)N3C[C@H]5CC[C@H](N5)[C@H]3[C@H](C)O4)c12 (stereo partly drawn) [Example Z599] |  |  | 
5 |  |  |  | C#Cc1c(F)ccc2cccc(-c3nc4c5c(nc(OCC67CCCN6CCC7=C)nc5c3F)N3C[C@H]5CC[C@H](N5)[C@H]3[C@H](C)O4)c12 (stereo partly drawn) [Example Z600, (5S,5aS,6S,9R)-2-(8-ethynyl-7-fluoronaphthalen-1-yl)-1-fluoro-5-methyl-12-((1-methylenetetrahydro-1H-pyrrolizin-7a (5H)-yl)methoxy)-5a,6,7,8,9,10-hexahydro-5H-4-oxa-3,10a, 11, 13, 14-pentaaza-6,9-methanonaphtho[1,8-ab]heptalene] | 18.3 | 15.3 | 64.8
6 |  |  |  | C#Cc1c(F)ccc2cccc(-c3nc4c5c(nc(OCC67CCCN6CC(=CF)C7)nc5c3F)N3C[C@H]5CC[C@H](N5)[C@H]3[C@H](C)O4)c12 (stereo partly drawn) [Example Z601, (5S,5aS,6S,9R)-2-(8-ethynyl-7-fluoronaphthalen-1-yl)-1-fluoro-12-((2-(fluoromethylene)tetrahydro-1H-pyrrolizin-7a (5H)-yl)methoxy)-5-methyl-5a,6,7,8,9,10-hexahydro-5H-4-oxa-3,10a, 11, 13, 14-pentaaza-6,9-methanonaphtho[1,8-ab]heptalene] | 10.5 | 13.5 | 39
7 | 34.1 | 26.5 | 90.4 | C#Cc1c(F)ccc2cccc(-c3nc4c5c(nc(OCC67CC(=C)CN6CCC76CC6)nc5c3F)N3C[C@H]5CC[C@H](N5)[C@H]3[C@H](C)O4)c12 (stereo partly drawn) [Example Z602, (58,5aS,6S,9R)-2-(8-ethynyl-7-fluoronaphthalen-1-yl)-1-fluoro-5-methyl-12-((6′-methylenetetrahydrospiro[cyclopropane-1, 1′-pyrrolizin]-7a′ (5′H)-yl)methoxy)-5a,6,7,8,9,10-hexahydro-5H-4-oxa-3,10a,11,13,14-pentaaza-6,9-methanonaphtho[1,8-ab]heptalene] |  |  | 
8 |  |  |  | C#Cc1c(F)ccc2cccc(-c3nc4c5c(nc(OCC67CC(=C)CN6[C@@H]6C[C@@H]6C7)nc5c3F)N3C[C@H]5CC[C@H](N5)[C@H]3[C@H](C)O4)c12 (stereo partly drawn) [Example Z603, (5S,5aS,6S,9R)-2-(8-Ethynyl-7-Fluoronaphthalen-1-Yl)-1-Fluoro-5-Methyl-12-(((1aR,6aR)-4-Methylenehexahydrocyclopropa[b]Pyrrolizin-5a (3H)-Yl)Methoxy)-5a,6,7,8,9,10-Hexahydro-5H-4-Oxa-3,10a,11,13,14-Pentaaza-6,9-Methanonaphtho[1,8-Ab]Heptalene] | 64.1 | 110 | 217
9 |  |  |  | C#Cc1c(F)ccc2cccc(-c3nc4c5c(nc(OCC67CC(=C)CN6[C@H]6C[C@H]6C7)nc5c3F)N3C[C@H]5CC[C@H](N5)[C@H]3[C@H](C)O4)c12 (stereo partly drawn) [Example Z604, (5S,5aS,6S,9R)-2-(8-ethynyl-7-fluoronaphthalen-1-yl)-1-fluoro-5-methyl-12-(((1aS,6aS)-4-methylenehexahydrocyclopropa[b]pyrrolizin-5a (3H)-yl)methoxy)-5a,6,7,8,9,10-hexahydro-5H-4-oxa-3,10a, 11, 13,14-pentaaza-6,9-methanonaphtho[1,8-ab]heptalene] | 95 | 573 | 468
10 |  |  |  | C#Cc1c(F)ccc2cccc(-c3nc4c5c(nc(OCC67CC(=C)CN6C[C@H]6C[C@H]67)nc5c3F)N3C[C@H]5CC[C@H](N5)[C@H]3[C@H](C)O4)c12 (stereo partly drawn) [Example Z606, (5S,5aS,6S,9R)-2-(8-ethynyl-7-fluoronaphthalen-1-yl)-1-fluoro-5-methyl-12-(((1aS,6bR)-5-methylenehexahydrocyclopropa[a]pyrrolizin-6a (4H)-yl)methoxy)-5a,6,7,8,9,10-hexahydro-5H-4-oxa-3,10a,11,13,14-pentaaza-6,9-methanonaphtho[1,8-ab]heptalene] | 874 | 908 | 802
11 |  |  |  | C#Cc1c(F)ccc2cccc(-c3nc4c5c(nc(OCC67CC(=C)CN6CC(F)C7)nc5c3F)N3C[C@H]5CC[C@H](N5)[C@H]3[C@H](C)O4)c12 (stereo partly drawn) [Example Z607, (5S,5aS,6S,9R)-2-(8-ethynyl-7-fluoronaphthalen-1-yl)-1-fluoro-12-((2-fluoro-6-methylenetetrahydro-1H-pyrrolizin-7a (5H)-yl)methoxy)-5-methyl-5a,6,7,8,9,10-hexahydro-5H-4-oxa-3,10a,11,13,14-pentaaza-6,9-methanonaphtho[1,8-ab]heptalene] | 24.4 | 81.2 | 101
12 |  |  |  | C#Cc1c(F)ccc2cccc(-c3nc4c5c(nc(OCC67CCCN6CC(=C(F)F)C7)nc5c3F)N3C[C@H]5CC[C@H](N5)[C@H]3[C@H](C)O4)c12 (stereo partly drawn) [Example Z608, (5S,5aS,6S,9R)-12-((2-(difluoromethylene)tetrahydro-1H-pyrrolizin-7a (5H)-yl)methoxy)-2-(8-ethynyl-7-fluoronaphthalen-1-yl)-1-fluoro-5-methyl-5a,6,7,8,9,10-hexahydro-5H-4-oxa-3,10a, 11,13,14-pentaaza-6,9-methanonaphtho[1,8-ab]heptalene] | 28.4 | 82.3 | 146
13 |  |  |  | C#Cc1c(F)ccc2cccc(-c3nc4c5c(nc(OCC67CC(=C)CN6CCC7=C)nc5c3F)N3C[C@H]5CC[C@H](N5)[C@H]3[C@H](C)O4)c12 (stereo partly drawn) [Example Z610, (5S,5aS,6S,9R)-12-((1,6-dimethylenetetrahydro-1H-pyrrolizin-7a (5H)-yl)methoxy)-2-(8-ethynyl-7-fluoronaphthalen-1-yl)-1-fluoro-5-methyl-5a,6,7,8,9,10-hexahydro-5H-4-oxa-3,10a, 11,13,14-pentaaza-6,9-methanonaphtho[1,8-ab]heptalene] | 17.2 | 18.6 | 42.3
14 |  |  |  | C#Cc1c(F)ccc2cccc(-c3nc4c5c(nc(OCC67CCCN6CCC7=CF)nc5c3F)N3C[C@H]5CC[C@H](N5)[C@H]3[C@H](C)O4)c12 (stereo partly drawn) [Example Z611, (5S,5aS,68,9R)-2-(8-ethynyl-7-fluoronaphthalen-1-yl)-1-fluoro-12-((1-(fluoromethylene)tetrahydro-1H-pyrrolizin-7a (5H)-yl)methoxy)-5-methyl-5a,6,7,8,9,10-hexahydro-5H-4-oxa-3,10a,11,13,14-pentaaza-6,9-methanonaphtho[1,8-ab]heptalene] | 19.6 | 10.4 | 49.1
